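Grown in 96-well plates, cells were treated for 48 hours with each compound at five concentrations. Insufficient inhibition: endpoint recorded as highest concentration tested. The concentration for full growth arrest is given as TGI.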
Assays:
Test in all cases: growth of human tumour cells (NCI), 48 h
[1] = test system: MALME-3M melanoma
[2] = test system: K-562 leukemia
[3] = test system: CCRF-CEM leukemia
[4] = test system: OVCAR-3 ovarian
[5] = test system: MDA-MB-435
[6] = test system: SR leukemia
[7] = test system: LOX IMVI melanoma
[8] = test system: A498 renal
[9] = test system: UO-31 renal
[10] = test system: ACHN renal
[11] = test system: EKVX NSCLC
[12] = test system: SW-620 colon
[13] = test system: 786-0 renal
[14] = test system: HCC-2998 colon
[15] = test system: HCT-15 colon
[16] = test system: OVCAR-8 ovarian
[17] = test system: HS 578T breast
[18] = test system: SNB-19 CNS
[19] = test system: HCT-116 colon
[20] = test system: SN12C renal
[21] = test system: UACC-62 melanoma
[22] = test system: U251 CNS
[23] = test system: SF-295 CNS
[24] = test system: SNB-75 CNS
[25] = test system: UACC-257 melanoma
[26] = test system: HT29 colon
[27] = test system: A549 NSCLC
[28] = test system: HOP-62 NSCLC
[29] = test system: SF-268 CNS
[30] = test system: NCI-H522 lung
[31] = test system: MDA-MB-231 breast
[32] = test system: OVCAR-5 ovarian
[33] = test system: T-47D breast
[34] = test system: KM12 colon
[35] = test system: OVCAR-4 ovarian
[36] = test system: HOP-92 NSCLC
[37] = test system: TK-10 renal
[38] = test system: SK-MEL-28 melanoma
[39] = test system: IGROV1 ovarian
[40] = test system: BT-549 breast
[41] = test system: SK-MEL-2 melanoma
[42] = test system: NCI-H23 lung
[43] = test system: MDA-N
[44] = test system: NCI-H226 lung
[45] = test system: MOLT-4 leukemia
[46] = test system: DU-145 prostate
[47] = test system: CAKI-1 renal
[48] = test system: NCI-H460 lung
[49] = test system: M14 melanoma
[50] = test system: RXF 393 renal
[51] = test system: SK-MEL-5 melanoma
[52] = test system: PC-3 prostate
[53] = test system: NCI/ADR-RES ovarian
[54] = test system: SK-OV-3 ovarian
[55] = test system: SF-539 CNS
[56] = test system: MCF7 breast
[57] = test system: COLO 205 colon
[58] = test system: HL-60(TB) leukemia
[59] = test system: RPMI-8226 leukemia

Compound `Cc1ccc(S(=O)(=O)NC(C(=O)O)C(C)C)cc1` (centres undefined) has a TGI [1] greater than 100 µM, a TGI [2] greater than 100 µM and a TGI [3] greater than 100 µM. It also gave a TGI [4] greater than 100 µM, a TGI [5] greater than 100 µM and a TGI [6] greater than 100 µM. The TGI [7] was greater than 100 µM, the TGI [8] was greater than 100 µM and the TGI [9] was greater than 100 µM. The TGI [10] was greater than 100 µM, the TGI [11] was greater than 100 µM and the TGI [12] was greater than 100 µM. For the same compound, the TGI [13] was greater than 100 µM, the TGI [14] was greater than 100 µM and the TGI [15] was greater than 100 µM. It also gave a TGI [16] greater than 100 µM, a TGI [17] greater than 100 µM and a TGI [18] greater than 100 µM. The TGI [19] was greater than 100 µM, the TGI [20] was greater than 100 µM and the TGI [21] was greater than 100 µM. The TGI [22] was greater than 100 µM, the TGI [23] was greater than 100 µM and the TGI [24] was greater than 100 µM. It also gave a TGI [25] greater than 100 µM, a TGI [26] greater than 100 µM and a TGI [27] greater than 100 µM. For the same compound, the TGI [28] was greater than 100 µM, the TGI [29] was greater than 100 µM and the TGI [30] was greater than 100 µM. It also gave a TGI [31] greater than 100 µM, a TGI [32] greater than 100 µM and a TGI [33] greater than 100 µM. The TGI [34] was greater than 100 µM, the TGI [35] was greater than 100 µM and the TGI [36] was greater than 100 µM. The TGI [37] was greater than 100 µM, the TGI [38] was greater than 100 µM and the TGI [39] was greater than 100 µM. For the same compound, the TGI [40] was greater than 100 µM, the TGI [41] was greater than 100 µM and the TGI [42] was greater than 100 µM. It also gave a TGI [43] greater than 100 µM, a TGI [44] greater than 100 µM and a TGI [45] greater than 100 µM. It also gave a TGI [46] greater than 100 µM, a TGI [47] greater than 100 µM and a TGI [48] greater than 100 µM. It also gave a TGI [49] greater than 100 µM, a TGI [50] greater than 100 µM and a TGI [51] greater than 100 µM. The TGI [52] was greater than 100 µM and the TGI [53] was greater than 100 µM.
For `COC(=O)/C1=C/c2c([nH]c3ccccc23)/C(C(=O)OC)=C\c2c1[nH]c1ccccc21`, the TGI [1] was greater than 50 µM, the TGI [4] was greater than 50 µM and the TGI [5] was greater than 50 µM. It also gave a TGI [7] greater than 50 µM, a TGI [8] greater than 50 µM and a TGI [9] greater than 50 µM. For the same compound, the TGI [10] was greater than 50 µM, the TGI [11] was greater than 50 µM and the TGI [12] was greater than 50 µM. For the same compound, the TGI [13] was greater than 50 µM, the TGI [15] was greater than 50 µM and the TGI [16] was greater than 50 µM. For the same compound, the TGI [17] was greater than 50 µM, the TGI [18] was greater than 50 µM and the TGI [54] was greater than 50 µM. It also gave a TGI [19] greater than 50 µM, a TGI [20] greater than 50 µM and a TGI [21] greater than 50 µM. It also gave a TGI [22] greater than 50 µM, a TGI [23] greater than 50 µM and a TGI [25] greater than 50 µM. The TGI [27] was greater than 50 µM, the TGI [28] was greater than 50 µM and the TGI [29] was greater than 50 µM. It also gave a TGI [30] of 22 µM, a TGI [31] greater than 50 µM and a TGI [32] greater than 50 µM. The TGI [33] was greater than 50 µM, the TGI [34] was greater than 50 µM and the TGI [37] was greater than 50 µM. The TGI [39] was 38.9 µM, the TGI [40] was greater than 50 µM and the TGI [41] was greater than 50 µM. For the same compound, the TGI [42] was greater than 50 µM, the TGI [43] was greater than 50 µM and the TGI [44] was greater than 50 µM. It also gave a TGI [46] greater than 50 µM, a TGI [55] greater than 50 µM and a TGI [47] greater than 50 µM. The TGI [56] was greater than 50 µM, the TGI [48] was greater than 50 µM and the TGI [49] was greater than 50 µM. It also gave a TGI [50] of 33.3 µM, a TGI [51] greater than 50 µM and a TGI [57] greater than 50 µM. It also gave a TGI [53] greater than 50 µM.
Compound `Cc1nn(C(=O)c2ccccc2O)c2c1C(c1ccco1)SC(N)=N2` (centres undefined) has a TGI [1] greater than 10 µM, a TGI [58] greater than 10 µM and a TGI [2] greater than 10 µM. It also gave a TGI [3] greater than 10 µM, a TGI [4] greater than 10 µM and a TGI [5] greater than 10 µM. It also gave a TGI [6] greater than 10 µM, a TGI [7] greater than 10 µM and a TGI [8] greater than 10 µM. The TGI [9] was greater than 10 µM, the TGI [10] was greater than 10 µM and the TGI [11] was greater than 10 µM. The TGI [12] was greater than 10 µM, the TGI [13] was greater than 10 µM and the TGI [15] was greater than 10 µM. The TGI [16] was greater than 10 µM, the TGI [17] was greater than 10 µM and the TGI [18] was greater than 10 µM. The TGI [54] was greater than 10 µM, the TGI [19] was greater than 10 µM and the TGI [20] was greater than 10 µM. The TGI [21] was 6 µM, the TGI [22] was greater than 10 µM and the TGI [23] was greater than 10 µM. The TGI [24] was greater than 10 µM, the TGI [25] was greater than 10 µM and the TGI [26] was greater than 10 µM. It also gave a TGI [27] greater than 10 µM, a TGI [28] of 6.8 µM and a TGI [29] greater than 10 µM. It also gave a TGI [31] greater than 10 µM, a TGI [59] greater than 10 µM and a TGI [32] greater than 10 µM. It also gave a TGI [33] greater than 10 µM, a TGI [34] greater than 10 µM and a TGI [35] greater than 10 µM. It also gave a TGI [36] greater than 10 µM, a TGI [37] greater than 10 µM and a TGI [38] greater than 10 µM. For the same compound, the TGI [39] was greater than 10 µM, the TGI [40] was greater than 10 µM and the TGI [41] was greater than 10 µM. The TGI [42] was greater than 10 µM, the TGI [43] was greater than 10 µM and the TGI [44] was greater than 10 µM. For the same compound, the TGI [45] was greater than 10 µM, the TGI [46] was greater than 10 µM and the TGI [55] was greater than 10 µM. It also gave a TGI [47] greater than 10 µM, a TGI [48] greater than 10 µM and a TGI [49] greater than 10 µM. For the same compound, the TGI [50] was greater than 10 µM, the TGI [57] was greater than 10 µM and the TGI [52] was greater than 10 µM. It also gave a TGI [53] of 8.16 µM.
